From ChEMBL document CHEMBL5537122, “Design, synthesis, and biological evaluation of 4-(2-fluorophenoxy)-7-methoxyquinazoline derivatives as dual EGFR/c-Met inhibitors for the treatment of NSCLC” (Eur J Med Chem, 2024)

Key:
A549 = experiment: Antiproliferative activity against human A549 cells overexpressing c-Met and EGFR assessed as reduction in cell viability incubated for 72 hrs by MTT assay; assay type: functional, cell-based; settings: A549, 72 h
NCI-H1975 = experiment: Antiproliferative activity against human NCI-H1975 cells overexpressing c-Met and EGFR assessed as reduction in cell viability incubated for 72 hrs by MTT assay; assay type: functional, cell-based; settings: NCI-H1975, 72 h
PC-9 = experiment: Antiproliferative activity against human PC-9 cells overexpressing c-Met and EGFR assessed as reduction in cell viability incubated for 72 hrs by MTT assay; assay type: functional, cell-based; settings: PC-9, 72 h
[1] = target: Epidermal growth factor receptor (Homo sapiens, UniProt P00533); experiment: biochemical
Description: Inhibition of N-terminal GST tagged human recombinant EGFR (695 to end residues) expressed in baculovirus infected Sf9 cells using Poly (4:1 Glu, Tyr) as substrate incubated for 60 mins in presence of ATP by ADP-Glo luminescent assay

[2] = target: Epidermal growth factor receptor (Homo sapiens, UniProt P00533, L858R); experiment: biochemical
[3] = target: Hepatocyte growth factor receptor (Homo sapiens, UniProt P08581); experiment: biochemical
Sequence of Hepatocyte growth factor receptor (P08581 whole entry): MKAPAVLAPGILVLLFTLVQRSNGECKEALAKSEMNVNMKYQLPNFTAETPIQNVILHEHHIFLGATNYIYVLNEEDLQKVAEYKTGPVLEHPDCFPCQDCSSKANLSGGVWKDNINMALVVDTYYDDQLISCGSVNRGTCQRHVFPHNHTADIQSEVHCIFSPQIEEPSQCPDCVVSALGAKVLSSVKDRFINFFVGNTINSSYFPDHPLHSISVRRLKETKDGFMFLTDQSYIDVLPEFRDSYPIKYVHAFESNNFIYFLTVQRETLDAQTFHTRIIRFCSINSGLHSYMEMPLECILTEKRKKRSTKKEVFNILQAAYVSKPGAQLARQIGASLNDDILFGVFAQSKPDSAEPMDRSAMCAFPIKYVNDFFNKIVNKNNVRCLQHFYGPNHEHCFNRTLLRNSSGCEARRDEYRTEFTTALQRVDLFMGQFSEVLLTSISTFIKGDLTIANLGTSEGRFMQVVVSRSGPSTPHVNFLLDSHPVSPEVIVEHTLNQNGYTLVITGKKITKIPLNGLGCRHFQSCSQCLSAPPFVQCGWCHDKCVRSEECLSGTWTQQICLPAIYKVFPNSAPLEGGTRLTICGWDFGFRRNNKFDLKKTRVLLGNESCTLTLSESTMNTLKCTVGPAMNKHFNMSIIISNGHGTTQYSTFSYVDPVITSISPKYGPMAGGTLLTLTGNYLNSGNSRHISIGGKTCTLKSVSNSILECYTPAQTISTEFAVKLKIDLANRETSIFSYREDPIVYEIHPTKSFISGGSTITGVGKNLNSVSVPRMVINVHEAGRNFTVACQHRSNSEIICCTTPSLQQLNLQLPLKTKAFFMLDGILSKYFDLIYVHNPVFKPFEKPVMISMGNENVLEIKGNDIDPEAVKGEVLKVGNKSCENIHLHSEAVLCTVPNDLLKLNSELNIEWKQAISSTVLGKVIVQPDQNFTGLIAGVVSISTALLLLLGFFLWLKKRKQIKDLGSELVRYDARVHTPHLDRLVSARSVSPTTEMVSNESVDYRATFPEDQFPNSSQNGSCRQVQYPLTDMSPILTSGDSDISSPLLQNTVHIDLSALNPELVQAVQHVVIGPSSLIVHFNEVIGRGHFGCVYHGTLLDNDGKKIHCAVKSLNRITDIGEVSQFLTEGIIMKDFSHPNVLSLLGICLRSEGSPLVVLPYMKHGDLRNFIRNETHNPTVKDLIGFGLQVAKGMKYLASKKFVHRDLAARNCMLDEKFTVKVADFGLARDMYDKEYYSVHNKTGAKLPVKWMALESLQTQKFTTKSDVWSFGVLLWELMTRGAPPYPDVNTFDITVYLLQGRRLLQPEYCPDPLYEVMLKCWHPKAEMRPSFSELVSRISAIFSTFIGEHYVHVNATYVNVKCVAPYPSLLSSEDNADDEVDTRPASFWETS
Description: Inhibition of N-terminal GST tagged human recombinant c-Met (956 to end residues) expressed in baculovirus infected Sf9 cells using Poly (4:1 Glu, Tyr) as substrate incubated for 60 mins in presence of ATP by ADP-Glo luminescent assay

Sequence of Epidermal growth factor receptor (Homo sapiens, UniProt P00533) (P00533 whole entry): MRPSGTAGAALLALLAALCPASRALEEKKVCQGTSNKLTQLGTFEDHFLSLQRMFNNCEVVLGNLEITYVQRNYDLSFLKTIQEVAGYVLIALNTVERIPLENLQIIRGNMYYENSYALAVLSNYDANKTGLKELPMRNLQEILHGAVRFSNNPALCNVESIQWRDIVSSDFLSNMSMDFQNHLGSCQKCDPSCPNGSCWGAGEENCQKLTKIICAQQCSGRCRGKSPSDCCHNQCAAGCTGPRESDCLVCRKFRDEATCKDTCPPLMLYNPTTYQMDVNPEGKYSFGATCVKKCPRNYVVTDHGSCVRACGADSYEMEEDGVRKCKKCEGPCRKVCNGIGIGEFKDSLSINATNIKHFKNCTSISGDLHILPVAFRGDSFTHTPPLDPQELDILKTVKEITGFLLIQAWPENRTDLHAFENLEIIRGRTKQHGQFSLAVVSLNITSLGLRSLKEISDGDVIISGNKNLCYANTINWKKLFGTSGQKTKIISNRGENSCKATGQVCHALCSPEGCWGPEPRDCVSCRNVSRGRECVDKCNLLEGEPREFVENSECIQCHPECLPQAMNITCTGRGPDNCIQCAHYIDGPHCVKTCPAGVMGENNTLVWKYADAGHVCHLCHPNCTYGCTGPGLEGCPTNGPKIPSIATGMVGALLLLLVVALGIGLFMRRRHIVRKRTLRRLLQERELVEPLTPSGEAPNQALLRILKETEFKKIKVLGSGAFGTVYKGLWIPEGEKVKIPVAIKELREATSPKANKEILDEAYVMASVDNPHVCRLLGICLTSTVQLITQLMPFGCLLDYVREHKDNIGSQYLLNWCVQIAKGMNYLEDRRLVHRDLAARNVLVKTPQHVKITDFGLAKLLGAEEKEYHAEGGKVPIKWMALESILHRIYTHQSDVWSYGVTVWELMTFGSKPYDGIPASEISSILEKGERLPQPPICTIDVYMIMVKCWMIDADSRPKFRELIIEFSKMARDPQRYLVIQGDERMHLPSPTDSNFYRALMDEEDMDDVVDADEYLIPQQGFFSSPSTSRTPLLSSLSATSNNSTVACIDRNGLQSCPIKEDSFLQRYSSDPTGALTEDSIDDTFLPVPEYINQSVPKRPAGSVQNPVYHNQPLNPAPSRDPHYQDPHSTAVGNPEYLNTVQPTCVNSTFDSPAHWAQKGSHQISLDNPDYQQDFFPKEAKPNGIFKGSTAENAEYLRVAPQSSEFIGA
Sequence of Epidermal growth factor receptor (Homo sapiens, UniProt P00533, L858R) (P00533 25-1210 L858R limits assumed): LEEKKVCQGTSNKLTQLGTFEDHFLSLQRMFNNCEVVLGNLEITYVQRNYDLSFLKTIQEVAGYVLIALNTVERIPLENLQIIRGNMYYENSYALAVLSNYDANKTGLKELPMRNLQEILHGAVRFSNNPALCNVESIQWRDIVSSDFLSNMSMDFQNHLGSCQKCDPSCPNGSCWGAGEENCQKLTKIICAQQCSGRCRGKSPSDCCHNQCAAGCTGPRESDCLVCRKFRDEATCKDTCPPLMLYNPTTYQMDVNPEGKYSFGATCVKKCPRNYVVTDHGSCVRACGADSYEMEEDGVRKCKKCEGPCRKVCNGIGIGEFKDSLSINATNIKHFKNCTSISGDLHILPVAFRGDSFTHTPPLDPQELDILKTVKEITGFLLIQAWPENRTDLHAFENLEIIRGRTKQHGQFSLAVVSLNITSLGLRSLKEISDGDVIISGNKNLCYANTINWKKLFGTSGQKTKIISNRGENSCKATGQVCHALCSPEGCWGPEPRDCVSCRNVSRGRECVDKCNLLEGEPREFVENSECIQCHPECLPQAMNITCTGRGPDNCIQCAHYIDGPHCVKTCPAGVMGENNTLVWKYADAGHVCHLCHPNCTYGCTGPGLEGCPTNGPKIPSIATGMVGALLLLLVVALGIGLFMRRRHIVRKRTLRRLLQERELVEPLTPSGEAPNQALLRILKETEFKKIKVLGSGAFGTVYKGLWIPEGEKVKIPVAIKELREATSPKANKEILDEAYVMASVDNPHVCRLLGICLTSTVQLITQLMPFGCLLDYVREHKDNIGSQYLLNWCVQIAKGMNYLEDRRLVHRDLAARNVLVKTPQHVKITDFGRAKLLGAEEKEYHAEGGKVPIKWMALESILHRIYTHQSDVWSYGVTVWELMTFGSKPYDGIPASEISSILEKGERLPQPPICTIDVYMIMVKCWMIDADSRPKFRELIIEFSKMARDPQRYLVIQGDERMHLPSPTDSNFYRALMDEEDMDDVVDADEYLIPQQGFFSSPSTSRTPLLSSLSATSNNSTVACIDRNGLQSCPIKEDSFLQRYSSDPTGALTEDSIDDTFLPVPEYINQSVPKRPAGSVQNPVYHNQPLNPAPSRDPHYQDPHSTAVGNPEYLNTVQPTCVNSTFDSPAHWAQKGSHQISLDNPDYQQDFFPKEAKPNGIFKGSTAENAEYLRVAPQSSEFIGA

Structure (SMILES)	IC50 (A549)	IC50 (NCI-H1975)	IC50 (PC-9)	IC50 [1]	IC50 [2]	IC50 [3]
C/C=C/C(=O)Nc1cc2c(Oc3ccc(NC(=O)n4c(=O)c(-c5ccccc5)c(C)n4C)cc3F)cccc2cc1OC	2.7 µM	9.42 µM	8.88 µM	4.83 µM	> 10 µM	0.015 µM
C=CC(=O)Nc1cc2c(Oc3ccc(NC(=O)c4c(-c5c(Cl)cccc5Cl)noc4C)cc3F)cccc2cc1OC	4.57 µM	4.9 µM	6.73 µM			1.77 µM
CCC(=O)Nc1cc2c(Oc3ccc(NC(=O)n4c(=O)c(-c5ccccc5)c(C)n4C)cc3F)cccc2cc1OC	8.42 µM	22.2 µM	1.06 µM	> 10 µM	> 10 µM	0.00102 µM
C=CC(=O)Nc1cc2c(Oc3ccc(NC(=O)CCCc4ccc(OC)cc4)cc3F)ncnc2cc1OC	3.12 µM	2.1 µM	19.4 µM	0.567 µM	0.693 µM	0.348 µM
CCCCC(=O)Nc1cc2c(Oc3ccc(NC(=O)CCCc4ccc(OC)cc4)cc3F)ncnc2cc1OC	29.8 µM	43.4 µM	> 50 µM	> 10 µM	> 10 µM	0.824 µM
CCCC(=O)Nc1cc2c(Oc3ccc(NC(=O)CCCc4ccccc4)cc3F)ncnc2cc1OC	7.66 µM	4.96 µM	9.31 µM	2.65 µM	4.65 µM	0.316 µM
CCC(=O)Nc1cc2c(Oc3ccc(NC(=O)CCCc4ccc(OC)cc4)cc3F)ncnc2cc1OC	2.87 µM	7.05 µM	9.28 µM	> 10 µM	> 10 µM	0.273 µM
CCCC(=O)Nc1cc2c(Oc3ccc(NC(=O)CCCc4ccc(C)cc4)cc3F)ncnc2cc1OC	14 µM	14.2 µM	28.9 µM	> 10 µM	> 10 µM	0.678 µM
CCCC(=O)Nc1cc2c(Oc3ccc(NC(=O)c4sc(-c5ccccc5)nc4C)cc3F)cccc2cc1OC	8.15 µM	5.1 µM	> 50 µM	> 10 µM	> 10 µM	0.0719 µM
C=CC(=O)Nc1cc2c(Oc3ccc(NC(=O)CCCc4ccccc4)cc3F)ncnc2cc1OC	2.25 µM	1.34 µM	2.46 µM	0.387 µM	0.497 µM	0.658 µM
CCC(=O)Nc1cc2c(Oc3ccc(NC(=O)NCCc4ccc(OC)c(OC)c4)cc3F)ncnc2cc1OC	> 50 µM	> 50 µM	> 50 µM	> 10 µM	> 10 µM	0.0905 µM
CCCC(=O)Nc1cc2c(Oc3ccc(NC(=O)c4c(-c5c(Cl)cccc5Cl)noc4C)cc3F)cccc2cc1OC	> 50 µM	> 50 µM	> 50 µM	> 10 µM	> 10 µM	5.93 µM
C=CC(=O)Nc1cc2c(Oc3ccc(NC(=O)NCCc4csc(Br)c4)cc3F)ncnc2cc1OC	4.08 µM	6.07 µM	3.64 µM	2.07 µM	1.51 µM	0.253 µM
CCC(=O)Nc1cc2c(Oc3ccc(NC(=O)c4sc(-c5ccccc5)nc4C)cc3F)cccc2cc1OC	2.35 µM	3.56 µM	2.94 µM	3.9 µM	> 10 µM	0.0706 µM
C/C=C/C(=O)Nc1cc2c(Oc3ccc(NC(=O)CCCc4ccc(F)cc4)cc3F)ncnc2cc1OC	> 50 µM	4.78 µM	2.31 µM	4.54 µM	5.72 µM	0.67 µM
C/C=C/C(=O)Nc1cc2c(Oc3ccc(NC(=O)c4sc(-c5ccccc5)nc4C)cc3F)cccc2cc1OC	44.2 µM	> 50 µM	> 50 µM	2.32 µM	> 10 µM	0.0964 µM
CCCCC(=O)Nc1cc2c(Oc3ccc(NC(=O)CCCc4ccc(C)cc4)cc3F)ncnc2cc1OC	6.22 µM	> 50 µM	> 50 µM	> 10 µM	> 10 µM	2 µM
C=CC(=O)Nc1cc2c(Oc3ccc(NC(=O)CCCc4ccc(F)cc4)cc3F)ncnc2cc1OC	2.07 µM	8.21 µM	4.56 µM	0.782 µM	1.07 µM	0.355 µM
C/C=C/C(=O)Nc1cc2c(Oc3ccc(NC(=O)CCCc4ccc(OC)cc4)cc3F)ncnc2cc1OC	6.43 µM	> 50 µM	8.17 µM	> 10 µM	> 10 µM	0.493 µM
C=CC(=O)Nc1cc2c(Oc3ccc(NC(=O)NCCC4CCCCC4)cc3F)ncnc2cc1OC	1.57 µM	4.26 µM	1.68 µM	1.28 µM	1.39 µM	0.088 µM
C/C=C/C(=O)Nc1cc2c(Oc3ccc(NC(=O)CCCc4ccccc4)cc3F)ncnc2cc1OC	5.41 µM	4.65 µM	5.78 µM	2.89 µM	3.54 µM	0.465 µM
CCCCC(=O)Nc1cc2c(Oc3ccc(NC(=O)CCCc4ccc(F)cc4)cc3F)ncnc2cc1OC	> 50 µM	41.2 µM	> 50 µM	> 10 µM	> 10 µM	0.533 µM
CCCC(=O)Nc1cc2c(Oc3ccc(NC(=O)n4c(=O)c(-c5ccccc5)c(C)n4C)cc3F)cccc2cc1OC	10.2 µM	> 50 µM	> 50 µM	4.21 µM	> 10 µM	0.00411 µM
CCCC(=O)Nc1cc2c(Oc3ccc(NC(=O)CCCc4ccc(F)cc4)cc3F)ncnc2cc1OC	> 50 µM	12 µM	> 50 µM	> 10 µM	> 10 µM	0.477 µM
C=CC(=O)Nc1cc2c(Oc3ccc(NC(=O)CCCc4ccc(C)cc4)cc3F)ncnc2cc1OC	5.21 µM	0.43 µM	7.67 µM	1.79 µM	1.47 µM	0.394 µM
C/C=C/C(=O)Nc1cc2c(Oc3ccc(NC(=O)CCCc4ccc(C)cc4)cc3F)ncnc2cc1OC	4.56 µM	9.49 µM	8.4 µM	7.65 µM	> 10 µM	0.531 µM
COc1cc2ncnc(Oc3ccc(NC(=O)CCCc4ccsc4)cc3F)c2cc1NC(=O)CCC(C)C	13 µM	> 50 µM	> 50 µM	> 10 µM	> 10 µM	5.55 µM
C=CC(=O)Nc1cc2c(Oc3ccc(NC(=O)NCCc4ccc(OC)c(OC)c4)cc3F)ncnc2cc1OC	6.7 µM	11.4 µM	2.48 µM	2.35 µM	4.18 µM	0.114 µM
CCCCC(=O)Nc1cc2c(Oc3ccc(NC(=O)CCCc4ccccc4)cc3F)ncnc2cc1OC	7.15 µM	8.39 µM	8.84 µM	> 10 µM	> 10 µM	0.605 µM
COc1ccc(CCCC(=O)Nc2ccc(Oc3ncnc4cc(OC)c(NC(=O)CCC(C)C)cc34)c(F)c2)cc1	> 50 µM	10.5 µM	> 50 µM	> 10 µM	> 10 µM	> 10 µM
